Calls of active or inactive are those of the source. The calls are words filed in the database; no cut-off is given here.
Tests used:
[1] = Tmax in male Balb/c mouse at 1 mg/kg, po measured upto 96 hrs by LC-MS/MS analysis; assay type: ADME, organism-based; settings: in vivo
[2] = molecular target: T1, Poly [ADP-ribose] polymerase 1 (Homo sapiens, UniProt P09874); test: Inhibition of PARP1 (unknown origin) preincubated with compound for 10 mins followed by DNA and NAD+ addition and measured after 60 mins by chemiluminescence based envision reader analysis
T1 sequence (P09874 whole entry): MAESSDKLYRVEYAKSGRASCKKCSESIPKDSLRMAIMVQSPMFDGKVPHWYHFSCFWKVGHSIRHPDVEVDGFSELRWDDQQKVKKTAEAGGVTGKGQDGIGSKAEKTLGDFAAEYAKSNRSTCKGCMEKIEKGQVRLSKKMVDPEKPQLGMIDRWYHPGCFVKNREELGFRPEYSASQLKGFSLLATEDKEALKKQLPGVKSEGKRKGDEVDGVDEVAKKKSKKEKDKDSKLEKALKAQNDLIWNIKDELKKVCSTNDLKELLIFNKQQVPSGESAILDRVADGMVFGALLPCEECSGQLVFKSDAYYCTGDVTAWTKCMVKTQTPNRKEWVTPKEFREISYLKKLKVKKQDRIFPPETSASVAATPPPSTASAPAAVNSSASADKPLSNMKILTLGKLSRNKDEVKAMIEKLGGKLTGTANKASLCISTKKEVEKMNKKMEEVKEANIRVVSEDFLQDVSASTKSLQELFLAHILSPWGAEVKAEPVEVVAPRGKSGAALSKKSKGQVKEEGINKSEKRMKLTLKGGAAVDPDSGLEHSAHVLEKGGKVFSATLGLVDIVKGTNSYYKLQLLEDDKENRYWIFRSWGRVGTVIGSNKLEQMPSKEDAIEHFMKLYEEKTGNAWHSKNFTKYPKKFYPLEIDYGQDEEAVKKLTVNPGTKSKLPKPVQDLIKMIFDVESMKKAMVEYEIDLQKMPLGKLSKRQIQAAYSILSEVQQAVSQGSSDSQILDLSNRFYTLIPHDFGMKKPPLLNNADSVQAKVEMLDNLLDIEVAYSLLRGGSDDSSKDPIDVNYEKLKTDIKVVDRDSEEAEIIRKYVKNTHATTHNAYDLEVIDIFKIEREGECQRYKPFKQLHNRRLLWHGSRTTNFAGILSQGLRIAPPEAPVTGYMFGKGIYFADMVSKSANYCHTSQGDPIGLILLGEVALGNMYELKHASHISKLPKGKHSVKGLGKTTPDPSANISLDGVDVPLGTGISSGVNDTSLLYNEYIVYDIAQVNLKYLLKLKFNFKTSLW

[3] = Clearance in male Balb/c mouse at 1 mg/kg, po measured upto 96 hrs by LC-MS/MS analysis; assay type: ADME, organism-based; settings: in vivo, po, 1 mg/kg, 96 h
[4] = Cmax in male Balb/c mouse at 1 mg/kg, iv measured upto 96 hrs by LC-MS/MS analysis; assay type: ADME, organism-based; settings: in vivo
[5] = Half life in rat at 2.5 mg/kg, po measured upto 96 hrs by LC-MS/MS analysis; assay type: ADME, organism-based; settings: in vivo
[6] = Clearance in rat at 2.5 mg/kg, po measured upto 96 hrs by LC-MS/MS analysis; assay type: ADME, organism-based; settings: in vivo
[7] = molecular target: T1, Poly [ADP-ribose] polymerase 1; test: Inhibition of PARP1 in wild type human A549 cells preincubated with compound for 1 hr followed by H2O2 addition and measured after 5 mins by PARylation inhibition assay; assay type: cell-based
[8] = molecular target: T2, Poly [ADP-ribose] polymerase 2 (Homo sapiens, UniProt Q9UGN5); test: Inhibition of PARP2 in PARP1 knockout human A549 cells preincubated with compound for 1 hr followed by H2O2 addition and measured after 5 mins by selective targeting PARylation inhibition assay; assay type: cell-based
T2 sequence (Q9UGN5 whole entry): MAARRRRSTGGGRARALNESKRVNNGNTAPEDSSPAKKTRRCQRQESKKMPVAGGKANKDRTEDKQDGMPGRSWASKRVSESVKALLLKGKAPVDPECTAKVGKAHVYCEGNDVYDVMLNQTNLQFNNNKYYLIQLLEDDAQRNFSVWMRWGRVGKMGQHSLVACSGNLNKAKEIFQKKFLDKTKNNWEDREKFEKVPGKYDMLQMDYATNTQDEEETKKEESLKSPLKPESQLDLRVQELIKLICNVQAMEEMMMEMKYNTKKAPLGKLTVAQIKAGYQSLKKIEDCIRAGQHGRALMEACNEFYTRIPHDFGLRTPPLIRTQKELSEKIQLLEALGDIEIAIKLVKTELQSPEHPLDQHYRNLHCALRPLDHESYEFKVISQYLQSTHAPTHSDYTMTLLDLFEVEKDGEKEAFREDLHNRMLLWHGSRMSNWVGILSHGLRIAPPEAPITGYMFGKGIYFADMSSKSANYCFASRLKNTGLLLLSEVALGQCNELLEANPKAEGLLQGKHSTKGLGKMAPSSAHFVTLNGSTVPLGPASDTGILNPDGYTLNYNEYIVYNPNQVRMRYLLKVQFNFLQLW

[9] = system: MDA-MB-436; test: Inhibition of colony formation in human MDA-MB-436 cells assessed as reduction in survival rate incubated for 10 days by crystal violet staining based assay; assay type: functional, cell-based; settings: dose 0.1-100 nM, time 10.0 day
[10] = system: MDA-MB-436; test: Induction of cell cycle arrest in human MDA-MB-436 cells assessed as accumulation of cells at S phase at 1 nM incubated for 3 days by PI staining based flow cytometric analysis (Rvb =18.94%); assay type: functional; settings: time 3 day
[11] = system: MDA-MB-436; test: Induction of apoptosis in human MDA-MB-436 cells assessed as late apoptotic cells at 10 nM incubated for 3 days by Annexin V/ PI staining based flow cytometry (reference value: 6.57%); assay type: functional; settings: time 3 day
[12] = system: MDA-MB-436; test: Induction of apoptosis in human MDA-MB-436 cells assessed as late apoptotic cells at 100 nM incubated for 3 days by Annexin V/ PI staining based flow cytometry (reference value: 6.57%); assay type: functional; settings: time 3 day
[13] = system: MDA-MB-436; test: Induction of cell cycle arrest in human MDA-MB-436 cells assessed as accumulation of cells at S phase at 100 nM incubated for 3 days by PI staining based flow cytometric analysis (Rvb =18.94%); assay type: functional; settings: time 3 day
[14] = system: MDA-MB-436; test: Induction of cell cycle arrest in human MDA-MB-436 cells assessed as accumulation of cells at G0/G1 phase at 10 nM incubated for 3 days by PI staining based flow cytometric analysis (Rvb =56.18%); assay type: functional; settings: time 3 day
[15] = system: MDA-MB-436; test: Induction of DNA damage in human MDA-MB-436 cells assessed as increase in gammaH2AX foci at 0.1 to 1000 nM incubated for 3 days by DAPI staining based immunofluorescence analysis; assay type: functional, cell-based; settings: dose 0.1-1000 nM, time 3.0 day
[16] = system: MDA-MB-436; test: Induction of DNA damage in human MDA-MB-436 cells assessed as increase in tail intensity at 100 to 1000 nM incubated for 3 days by PI staining based fluorescence microscopic analysis; assay type: functional, cell-based; settings: dose 100-1000 nM, time 3.0 day
[17] = system: DLD-1; test: Induction of DNA damage in BRCA2 knockout human DLD-1 cells assessed as increase in tail intensity at 100 to 1000 nM incubated for 3 days by PI staining based fluorescence microscopic analysis; assay type: functional, cell-based; settings: dose 100-1000 nM, time 3.0 day
[18] = system: MDA-MB-436; test: Antitumor activity against human MDA-MB-436 cells xenografted in female NOD/SCID mouse assessed as inhibition of tumor growth administered orally once every other day for 28 days; assay type: functional, cell-based; settings: dose 0.3-3 mg/kg, route po, time 28.0 day
[19] = system: MDA-MB-436; test: Antitumor activity against human MDA-MB-436 cells xenografted in female NOD/SCID mouse assessed as tumor growth inhibition at 0.3 mg/kg, po administered once every other day for 28 days relative to control; assay type: functional; design: scale not given: the % may be the effect or the level left; settings: time 28 day
[20] = system: MDA-MB-436; test: Antitumor activity against human MDA-MB-436 cells xenografted in female NOD/SCID mouse assessed as tumor regression rate at 1 mg/kg, po administered once every other day for 28 days relative to control; assay type: functional; settings: time 28 day
[21] = system: MDA-MB-436; test: Antitumor activity against human MDA-MB-436 cells xenografted in female NOD/SCID mouse assessed as tumor regression rate at 3 mg/kg, po administered once every other day for 28 days relative to control; assay type: functional; settings: time 28 day
[22] = Toxicity in female NOD/SCID mouse xenografted with human MDA-MB-436 cells assessed as change in body weight at 0.3 to 3 mg/kg, po administered once every other day for 28 days and measured every 2 days; assay type: organism-based; settings: in vivo, 672 h, dose 0.3-3 mg/kg, time 28 day
[23] = Toxicity in female NOD/SCID mouse xenografted with human MDA-MB-436 cells assessed as histological changes in heart at 3 mg/kg, po administered once every other day for 28 days by H and E staining based analysis; assay type: organism-based; settings: in vivo, 672 h, time 28 day
[24] = system: MDA-MB-436; test: Antitumor activity against human MDA-MB-436 cells xenografted in female NOD/SCID mouse assessed as weaker Ki67 staining at 0.3 to 3 mg/kg, po administered once every other day for 28 days by immunohistochemical analysis; assay type: functional, organism-based; settings: dose 0.3-3 mg/kg, time 28.0 day
[25] = molecular target: T2, Poly [ADP-ribose] polymerase 2; test: Binding affinity to PARP2 (unknown origin) assessed as DNA trapping activity incubated for 1 hr by Envision 2105 plate reader analysis
[26] = Sub-acute toxicity in Kunming mouse assessed as change ALB2 level at 100 to 300 mg/kg administered via gavage for 14 days; assay type: organism-based; settings: in vivo, po, 336 h, dose 100-300 mg/kg, time 14 day
[27] = Sub-acute toxicity in Kunming mouse assessed as change ASTL level at 100 to 300 mg/kg administered via gavage for 14 days; assay type: organism-based; settings: in vivo, po, 336 h, dose 100-300 mg/kg, time 14 day
[28] = Sub-acute toxicity in Kunming mouse assessed as change UREAL level at 100 to 300 mg/kg administered via gavage for 14 days; assay type: organism-based; settings: in vivo, po, 336 h, dose 100-300 mg/kg, time 14 day
[29] = Sub-acute toxicity in Kunming mouse assessed as change ALB2 level at 30 to 100 mg/kg administered via gavage once every other day for 14 days; assay type: organism-based; settings: in vivo, po, 336 h, dose 30-100 mg/kg, time 14 day
[30] = Sub-acute toxicity in Kunming mouse assessed as change ASTL level at 30 to 100 mg/kg administered via gavage once every other day for 14 days; assay type: organism-based; settings: in vivo, po, 336 h, dose 30-100 mg/kg, time 14 day
[31] = molecular target: T1, Poly [ADP-ribose] polymerase 1; test: Binding affinity to PARP1 (unknown origin) assessed as DNA trapping activity incubated for 1 hr by Envision 2105 plate reader analysis
[32] = Sub-acute toxicity in Kunming mouse assessed as change CK level at 30 to 100 mg/kg administered via gavage once every other day for 14 days; assay type: organism-based; settings: in vivo, po, 336 h, dose 30-100 mg/kg, time 14 day
[33] = Sub-acute toxicity in Kunming mouse assessed as change CREA2 level at 30 to 100 mg/kg administered via gavage once every other day for 14 days; assay type: organism-based; settings: in vivo, po, 336 h, dose 30-100 mg/kg, time 14 day
[34] = Sub-acute toxicity in Kunming mouse assessed as change LDH2 level at 30 to 100 mg/kg administered via gavage once every other day for 14 days; assay type: organism-based; settings: in vivo, po, 336 h, dose 30-100 mg/kg, time 14 day

CCc1cc2ncc(CN3CC=C(c4ccc(C#N)cn4)CC3)cc2[nH]c1=O
Tmax [1]: 8.33 h | IC50 [2]: 0.2 nM | CL [3]: 0.17 mL/min/kg | Cmax [4]: 10700 ng/mL | half-life [5]: 47.4 h | CL/F [6]: 0.167 mL/min/kg | IC50 [7]: 4.1 nM | IC50 [8]: 5190 nM | inhibition [9]: Dose-dependent-effect | Activity [10]: 14.99% | Activity [11]: 9.94% | Activity [12]: 9.92% | Activity [13]: 9.37% | Activity [14]: 60.25% | Activity [15]: Active | Activity [16]: Active | Activity [17]: Active | Activity [18]: Dose-dependent-effect | Activity [19]: 89.9% | Activity [20]: 59.4% | Activity [21]: 79.8% | Activity [22]: Non-toxic | Activity [23]: Non-toxic | Activity [24]: Active | EC50 [25]: 4330 nM | Activity [26]: Non-toxic | Activity [27]: Non-toxic | Activity [28]: Non-toxic | Activity [29]: Non-toxic | Activity [30]: Non-toxic | EC50 [31]: 0.9 nM | Activity [32]: Non-toxic | Activity [33]: Non-toxic | Activity [34]: Non-toxic

Source: ChEMBL document CHEMBL6096703 (J Med Chem, 2025)
